Test results taken from US7659249B2, “Membrane-permeable NFAT inhibitory peptide” (Japan Science and Technology Agency, priority 2002, dated 2010).
Residues, ends and D or L forms follow the SMILES beside them.

Tests used:
IL-2 gene = assay: transcription of IL-2 gene in Jurkat cells stimulated with PMA and ionomycin, real-time quantitative RT-PCR; assay type: cell-based, human; settings: 1 μM 11R-VEET
Description: Subsequently, 100 μl of RPMI containing 2 μM of phorbol 12-myristate 13-acetate (PMA) (available from Sigma-Aldrich Co.) and 40 μM of ionomycin (available from Sigma-Aldrich Co.) was added and culture was continued for 12 more hours. Then, the cells were recovered and using the obtained cells, the transcription amount of IL-2 gene was measured by the following real-time quantitative RT-PCR. In real-time quantitative RT-PCR, GAPDH, which is known as a housekeeping gene, was used as the inner standard substance.
RNeasy Mini Kit (available from QIAGEN K.K.) was used according to protocol and total RNA was extracted from the cells. Using the obtained total RNA, reverse transcription reaction was conducted by incubation at 22° C. for 10 minutes and then at 42° C. for 20 minutes.
Thereafter, using Light Cycler-Fast Start DNA Master SYBR Green I Kit (available from Roche Molecular Biochemicals), 20 μl of a mixed reaction solution ( 1/10 of the amount of the transcription product, 4 mM of MgCl2, 4 kinds of primers: 0.5 μM respectively, 2 μl of 10×Light Cycler-Fast Start DNA Master SYBR Green I) was prepared for amplification reaction. As the primer for human IL-2, the primer included in Competitive Quantitative RT-PCR Kit (available from Funakoshi Co., Ltd.) was used. […]

lymphocytes [1] = assay: mixed lymphocyte test, [3H]TdR incorporation; assay type: cell-based, mouse; settings: 1 μM 11R-VEET
Description: Spleen cells were retrieved from a 6 to 8 week old C3H/HeN mouse and a 6 to 8 week old BALB/c mouse H-2d (available from Shimizu Laboratory Supplies Co., Ltd.). The BALB/c spleen cells were treated with mitomycin C (available from Kyowa Hakko Kogyo Co., Ltd.) and used as stimulating cells.
Subsequently, 5×10^5 of mixed cells obtained by mixing the above stimulating cells and the spleen cells derived from a C3H/HeN mouse in a ratio of 1:5 were added in each well and cultured for 90 hours in a carbon dioxide culture device set to 37° C. and carbon dioxide concentration of 5%. As control, the mixed cells were added to wells containing only a medium and cultured in the same manner.
Then, ^3H-methyl-thymidine (hereinafter referred to as [^3H]TdR, available from Amersham Pharmacia Biotech K.K.) of 0.5 μCi/well was added and culture was conducted for 6 hours. Thereafter, the cells were placed on filter paper having a diameter of 1 cm and the radioactivity of [^3H]TdR incorporated into the cells was measured by a beta counter (made by Beckman Coulter K.K.).

lymphocytes [2] = assay: mixed lymphocyte test using spleen cells from treated mouse, [3H]TdR incorporation; assay type: in vivo, C3H/HeN mouse; settings: printed: 1 μM of 11R-VEET; method b87: 10 mg/kg intraperitoneal
Description: Thereafter, the cells were placed on filter paper having a diameter of 1 cm and the radioactivity of [^3H]TdR incorporated into the cells was measured by a beta counter.

transplanted beta cells = assay: beta cell transplant in diabetic model mouse, survival of transplant by Kaplan-Meier; assay type: in vivo; settings: 10 mg/kg intraperitoneally once a day after transplant, BALB/c donor, C3H/HeN diabetic recipient
Description: For the transplant, a 6 week old BALB/c mouse was used as the donor and a 6 week old C3H/HeN mouse was used as the recipient.
A diabetic model mouse was prepared by intraperitoneally injecting 220 mg/kg of streptozocin (available from Sigma-Aldrich Japan K.K.) to a C3H/HeN mouse. 6 days after the streptozocin injection, the mouse in which the glucose level exceeded 350 mg/dl was determined as being hyperglycemic.
Meanwhile, the spleen of the BALB/c mouse was taken out and after subjecting to discontinuous Ficoll density gradient centrifugation, beta cells were isolated by normal collagenase digestion.
About 500 of the isolated beta cells were transplanted under the capusula of the left kidney of the above diabetic model mouse. […] The glycemia was measured and when the level thereof exceeded 200 mg/dl for 2 consecutive days, transplant rejection was considered to have occurred.

βTC6 cells [3] = assay: insulin secretion of βTC6 cells (Mouse Insulin ELISA); assay type: cell-based; settings: 11R-VEET 10, 100, 1000 or 10000 nM, 96 hours
Description: The medium was replaced with a fresh medium containing […] every 24 hours. After 96 hours, the medium was replaced with a fresh medium. Culture was conducted for 1 more hour and the culture supernatant was collected. For control, βTC6 cells were cultured in the same manner, except that a medium without […] was used. Subsequently, using the collected supernatant, the secreted insulin was analyzed using Mouse Insulin ELISA (TMB) Kit (available from Shibayagi Co., Ltd.) according to protocol.

βTC6 cells [4] = assay: proliferation of βTC6 cells, [3H]TdR incorporation; assay type: cell-based; settings: 11R-VEET 10, 100, 1000 or 10000 nM
Description: The medium was replaced with a fresh medium containing […] every 24 hours. Subsequently, [^3H]TdR of 1 μCi/well was added and culture was conducted for 8 more hours. For control, βTC6 cells were cultured in the same manner except that a medium without […] was used. Thereafter, the cells were placed on filter paper having a diameter of 1 cm and the radioactivity of [^3H]TdR incorporated into the cells was measured by a beta counter.

[5] = test system: IL-2 gene (transcription); assay: half-life in T cells based on inhibitory activity to IL-2 transcription (time course in Jurkat cells); settings: human
Description: Subsequently, 100 μl of RPMI containing 2 μM of PMA and 40 μM of ionomycin was added and culture was conducted further for 12 hours, 17 hours, 23 hours, 35 hours or 59 hours.
Subsequently, the relative RNA amount to GAPDH was measured by conducting RT-PCR and real-time quantitative RT-PCR and analysis in the same manner as in Example 3, except that the respective obtained cells were used as samples. The time shown in FIG. 2 refers to the total culture time.
Using 1 ml of 10% fetal bovine serum-containing RPMI containing 1 μM of FK 506, 1×10^5 Jurkat cells were cultured for 1 hour in a carbon dioxide culture device set to 37° C. and carbon dioxide concentration of 5%. Subsequently, 100 μl of RPMI containing 2 μM of PMA and 40 μM of ionomycin was added and culture was conducted further for 12 hours, 17 hours, 23 hours, 35 hours or 59 hours. Thereafter, RT-PCR and real-time quantitative RT-PCR were conducted in the same manner as in Example 3, except that the obtained culture cells were used.

## 11R-VEET: peptide comprising 11 consecutive arginine residues and VEET (MAGPPHIVEETGPHVI) with 3 glycine residues; SEQ ID NO. 4; negative control (RRRRRRRRRRRGGGMAGPPHIVEETGPHVI)
IL-2 gene
  effect on transcription level of IL-2 gene: did not affect
Lymphocytes [1]
  effect on proliferation of lymphocytes: not affected
Lymphocytes [2]
  effect on proliferation of lymphocytes (cells from treated mouse): not affected
Transplanted beta cells
  survival rate of transplanted beta cells compared to control: did not affect
βTC6 cells [3]
  insulin secretion amount of βTC6 cells: unaffected
βTC6 cells [4]
  inhibitory effect to proliferation of βTC6 cells: did not exhibit an inhibitory effect

## CC[C@H](C)[C@H](NC(=O)[C@@H](NC(=O)[C@@H]1CCCN1C(=O)[C@H](Cc1c[nH]cn1)NC(=O)[C@@H]1CCCN1C(=O)CNC(=O)[C@H](C)NC(=O)[C@H](CCSC)NC(=O)CNC(=O)CNC(=O)CNC(=O)[C@H](CCCNC(=N)N)NC(=O)[C@H](CCCNC(=N)N)NC(=O)[C@H](CCCNC(=N)N)NC(=O)[C@H](CCCNC(=N)N)NC(=O)[C@H](CCCNC(=N)N)NC(=O)[C@H](CCCNC(=N)N)NC(=O)[C@H](CCCNC(=N)N)NC(=O)[C@H](CCCNC(=N)N)NC(=O)[C@H](CCCNC(=N)N)NC(=O)[C@H](CCCNC(=N)N)NC(=O)[C@@H](N)CCCNC(=N)N)C(C)C)C(=O)N[C@H](C(=O)N[C@H](C(=O)N[C@H](C(=O)NCC(=O)N1CCC[C@H]1C(=O)N[C@@H](Cc1c[nH]cn1)C(=O)N[C@@H](CCC(=O)O)C(=O)N[C@@H](CCC(=O)O)C(=O)O)[C@@H](C)O)[C@@H](C)CC)C(C)C [11R-VIVIT] (H-RRRRRRRRRRRGGGMAGPHPVIVITGPHEE-OH; N-terminus and C-terminus assumed)
[5]
  half-life at 1 μM: ~30 h
